Tests used:
Type in all cases: functional
Rattus norvegicus [1] = experiment: Antiinflammatory activity in Wistar albino rat assessed as carrageenan-induced paw edema at 50 mg/kg, po administered 30 mins prior to carrageenan-challenge measured after 1 hr relative to control
Rattus norvegicus [2] = experiment: Antiinflammatory activity in Wistar albino rat assessed as carrageenan-induced paw edema at 50 mg/kg, po administered 30 mins prior to carrageenan-challenge measured after 3 hrs relative to control; conditions: read-out: INH
Rattus norvegicus [3] = experiment: Antiinflammatory activity in Wistar albino rat assessed as carrageenan-induced paw edema at 50 mg/kg, po administered 30 mins prior to carrageenan-challenge measured after 2 hrs relative to control
Rattus norvegicus [4] = experiment: Antiinflammatory activity in Wistar albino rat assessed as carrageenan-induced paw edema at 50 mg/kg, ip administered 30 mins prior to carrageenan-challenge measured after 1 hr relative to control; conditions: route intraperitoneal
Rattus norvegicus [5] = experiment: Antiinflammatory activity in Wistar albino rat assessed as carrageenan-induced paw edema at 50 mg/kg, ip administered 30 mins prior to carrageenan-challenge measured after 2 hrs relative to control; conditions: route intraperitoneal
Rattus norvegicus [6] = experiment: Antiinflammatory activity in Wistar albino rat assessed as carrageenan-induced paw edema at 50 mg/kg, ip administered 30 mins prior to carrageenan-challenge measured after 3 hrs relative to control; conditions: route intraperitoneal

Row | Compound | inhibition in vivo at 50 mg/kg (Rattus norvegicus [1]) | inhibition in vivo at 50 mg/kg (Rattus norvegicus [2]) | inhibition in vivo at 50 mg/kg (Rattus norvegicus [3]) | inhibition in vivo at 50 mg/kg (Rattus norvegicus [4]) | inhibition in vivo at 50 mg/kg (Rattus norvegicus [5]) | inhibition in vivo at 50 mg/kg (Rattus norvegicus [6])
1 | O=C(c1ccc(Br)cc1)C(NNc1ccc(F)cc1)C(=O)C(F)(F)F (stereo not drawn) | 17.3% | 43.2% | 30.4% |  |  | 
2 | COc1ccc(C(=O)C(NNc2ccc(F)cc2)C(=O)C(F)(F)F)cc1 (stereo not drawn) | 15.4% | 40.6% | 26.6% |  |  | 
3 | O=C(c1ccc([N+](=O)[O-])cc1)C(NNc1ccc(F)cc1)C(=O)C(F)(F)F (stereo not drawn) | 5.05% | 18.2% | 8.86% |  |  | 
4 | O=C(c1ccc(F)cc1)C(NNc1ccc(F)cc1)C(=O)C(F)(F)F (stereo not drawn) | 18.3% | 42.4% | 28.5% |  |  | 
5 | O=C(c1cccs1)C(NNc1ccc(F)cc1)C(=O)C(F)(F)F (stereo not drawn) | 4.11% | 17.4% | 7.93% |  |  | 
6 | O=C(O)Cc1ccccc1Nc1c(Cl)cccc1Cl [DICLOFENAC SODIUM] |  |  |  | 20.1% | 30.4% | 46.8%
